According to patent US9549911B2, “Ginger metabolites and uses thereof” (North Carolina A&T State University, priority 2012, dated 2017):
Read-outs that look alike come from different tables or passages of the source. One block for each molecule: values may come before it.

Assays:
[1] = Chemical inhibition of [6]-shogaol metabolism in liver microsomes; format: in vitro ADME, human; conditions: inhibitor 500 μM, 20 min pre-incubation, [6]-shogaol 50 μM, 30 min
Method: Inhibitors ABT (500 μM) and 18β-GA (500 μM) or DMSO controls were pre-incubated with microsomes in experimental incubation mixture at 37° C. for 20 minutes before initiating the reaction by the addition of [6]-shogaol (50 μM). Reactions were terminated 30 minutes after substrate addition and incubation in a 37° C. water bath by equal volume of ice-cold acetonitrile with 2% acetic acid. The mixture was vortexed and underwent centrifugation at 13,000 g for 10 minutes. Aliquots of supernatant were stored at −20° C. until analysis.

[2] = tested on: human colon cancer cells HCT-116; test: MTT growth inhibition of human cancer and normal cells (Part 2); format: cell-based; conditions: for activity against cancer cells (MTT): HCT-116, 0 to 80 μM; for IC50: HCT-116, 48 h, 0 to 80 μM
Method: (§1) Growth inhibition of human cancer and normal cells. Cell growth inhibition was determined by a MTT colorimetric assay. Human colon cancer cells HCT-116, human lung cancer cells H-1299, human colon fibroblast cells CCD-18Co, and human lung fibroblast cells IMR-90 were plated in 96-well microtiter plates with 3000 cells/well and allowed to attach for 24 h at 37° C. […] After the cells were cultured for 48 h, the medium was aspirated and cells were treated with 200 μL fresh medium containing 2.41 mmol/L MTT. […] The reading reflected the number of viable cells and was expressed as a percentage of viable cells in the control. Both HCT-116 and H-1299 cells were cultured in McCoy's 5A medium. CCD-18Co and IMR-90 cells were cultured in Eagle's modified essential medium (EMEM). All of the above media were supplemented with 10% fetal bovine serum, 1% penicillin/streptomycin, and 1% glutamine, and the cells were kept in a 37° C. incubator with 95% humidity and 5% CO2.

[3] = tested on: human lung cancer cells H-1299; test: as above; format: cell-based; conditions: for activity against cancer cells (MTT): H-1299, 0 to 80 μM; for IC50: H-1299, 48 h, 0 to 80 μM
Method: as §1

[4] = tested on: human colon cancer cells HCT-116; test: MTT toxicity in colon cancer and normal colon cells (Part 5); format: cell-based; conditions: HCT-116, 24 hours
Method: (§2) Cell viability was determined by an MTT colorimetric assay. […] The reading reflected the number of viable cells and was expressed as a percentage of viable cells in the control. CCD-18Co cells were grown in EMEM. Both HCT-116 and HT-29 cells were cultured in McCoy's 5A medium. All of the above media were supplemented with 10% fetal bovine serum, 1% penicillin/streptomycin, and 1% glutamine, and the cells were kept in a 37° C. incubator with 95% humidity and 5% CO2.

[5] = tested on: human colon cancer cells HT-29; test: as above; format: cell-based; conditions: HT-29 (p53 mutant), 24 hours
Method: as §2

[6] = tested on: HCT-116 cells; test: Western blot analysis of apoptosis markers and p53 (Part 5); format: cell-based, human; conditions: HCT-116 (p53 wild-type), 24 hours; M2, 6S 10, 20 or 40 μM; 8S, M2′, 10S, M2″ 20 μM
Method: (§3) Cell lysates were prepared in ice-cold RIPA lysis buffer [25 mM Tris-HCl (pH 7.6), 150 mM NaCl, 1% NP-40, 1% sodium deoxycholate, 0.1% SDS, Thermo Fisher Scientific] supplemented with a protease inhibitor cocktail (AEBSF, aprotinin, bestatin, E-64, leupeptin and pepstatin A in DMSO with EDTA, Thermo Fisher Scientific). Protein content was measured by a Pierce BCA Assay Kit (Thermo Fisher Scientific). Protein contents of cell lysates (30 μg protein/lane) were resolved by SDS-PAGE. Proteins were then electro-transferred onto PVDF membranes and blots were blocked for one hour at room temperature in 1×TBS with 1% Casein (Bio-Rad Laboratories, Berkeley, Calif.). Blots were then incubated overnight at 4° C. with the desired primary antibody diluted in TBS with 0.5% Tween-20. Blots were then washed with TBS-Tween 20 and probed for 1 hour with the appropriate secondary antibody (1:1000). Protein bands were visualized with chemiluminescence using West Femto maximum detection substrate (Thermo Fisher Scientific). To confirm equal protein loading in each lane, immunoblots were stripped and re-probed for β-actin. Protein fold-induction was calculated by normalizing the intensity of the band of interest to β-actin first, and then to DMSO control lanes.

[7] = tested on: HT-29 cells; test: as above; format: cell-based, human; conditions: HT-29 (p53 mutant), 24 hours; M2, 6S 10, 20 or 40 μM; 8S, M2′, 10S, M2″ 20 μM
Method: as §3

[8] = tested on: human colon fibroblast cells CCD-18Co; test: in vitro; format: cell-based
Method: as §1

[9] = tested on: human lung fibroblast cells IMR-90; test: in vitro; format: cell-based
Method: as §1

[10] = in vitro; format: cell-based, human; conditions: human; normal colon cells CCD-18Co, 48 h; read-out: IC50 (cytotoxicity, MTT)
Method: as §1

[11] = in vitro; format: cell-based, human; conditions: human; normal lung cells IMR-90, 48 h; read-out: IC50 (cytotoxicity, MTT)
Method: as §1

[12] = tested on: H-1299 human lung cancer cells; test: MTT growth inhibition of human cancer cells, 24 h (Part 1); format: cell-based; conditions: Homo sapiens, NCI-H1299; H-1299, 24 h, 0 to 80 μM
Method: (§4) The reading reflected the number of viable cells and was expressed as a percentage of viable cells in the control. Both HCT-116 and H-1299 cells were cultured in McCoy's 5A medium. All of the above media were supplemented with 10% fetal bovine serum, 1% penicillin/streptomycin, and 1% glutamine, and the cells were kept in a 37° C. incubator with 95% humidity and 5% CO2.

[13] = tested on: HCT-116 human colon cancer cells; test: as above; format: cell-based; conditions: Homo sapiens; HCT-116, 24 h, 0 to 80 μM
Method: as §4

[14] = tested on: H-1299 cells; test: TUNEL apoptosis assay (Part 1); format: cell-based, human; conditions: 24 h
Method: (§5) HCT-116 and H-1299 cells were seeded in six-well plates at 1.0×10^5 cells/well and were incubated at 37° C. in a 5% CO2 incubator. After 24 h, fresh media supplemented with DMSO (control), [6]-shogaol (10 or 20 μM), M9 (40 or 80 μM), or M11 (40 or 80 μM) were added to the wells. After 24-h incubation, cells were washed and pretreated for 15 min at room temperature with a solution of 20 μg/ml proteinase K. Cells were then washed twice with PBS pH 7.4 and were fixed for 10 min at room temperature using 10% neutral formaldehyde solution. After two washes in distilled H2O, cells were resuspended in 100 μl of distilled H2O and were applied on silanized microscope slides. Slides were incubated overnight at 37° C. and were washed twice with PBS. Terminal deoxynucleotidyl transferase deoxyuridine triphosphate nick-end labeling (TUNEL) assay was then performed according to the manufacturer's protocol. Cells were observed under 400× power using a Zeiss A1 microscope (Carl Zeiss, Inc., Thornwood, N.Y.).
(§6) Ten fields per slide were evaluated, and TUNEL-positive cells (with brown coloration in the nucleus) were expressed as a percentage of the total number of cells contained in a field. Statistical Analysis. For simple comparisons between two groups, twotailed Student's t test was used. A p value of less than 0.05 was considered statistically significant in all the tests.

[15] = tested on: HCT-116 cells; test: TUNEL apoptosis assay (Part 1); format: cell-based, human; conditions: 24 h
Method: as §5, §6

[16] = tested on: H-1299 cells; test: TUNEL apoptosis assay (Part 2); format: cell-based, human; conditions: H-1299, 20 or 40 μM, 24 hours
Method: (§7) HCT-116 and H1299 cells were seeded in 6-well plates at 1×10^5 cells/well and incubated at 37° C. in 5% CO2 incubator. After 24 hours, fresh media supplemented with DMSO (control), [6]-shogaol, M2, M6, or M13 metabolites (20 μM or 40 μM) were added to the wells. After 6 or 24 hours incubation at 37° C. in 5% CO2 incubator, cells were washed and pre-treated for 15 min at room temperature with a solution of 20 μg/ml proteinase K. Cells were then washed twice with phosphate buffer saline pH 7.4 (PBS) and fixed for 10 min at room temperature using 10% neutral formaldehyde solution. After 2 washes in ddH2O, cells were resuspended in 100 μL ddH2O and applied on silanized microscope slides. Slides were incubated overnight at 37° C., and washed twice with PBS. TUNEL assay was then carried out according to the manufacturer's protocol. Cells were observed under 400× power using a Zeiss microscope A1 (Thornwood, N.Y.). 10 fields per slide were evaluated, and TUNEL+ cells (with brown coloration in the nucleus) were expressed as a percentage of the total number of cells contained in a field.

[17] = tested on: HCT-116 cells; test: TUNEL apoptosis assay (Part 2); format: cell-based, human; conditions: HCT-116, 20 or 40 μM
Method: as §7

SMILES: CC1(C)[C@@H](O)CC[C@]2(C)[C@H]3C(=O)C=C4[C@@H]5C[C@@](C)(C(=O)O)CC[C@]5(C)CC[C@@]4(C)[C@]3(C)CC[C@@H]12 [18β-glycyrrhetinic acid]
effect on reductive metabolism of [6]-shogaol [1]: decimated the reductive metabolism

SMILES: Nn1nnc2ccccc21 [ABT, 1-Aminobenzotriazole]
effect on oxidative metabolism of [6]-shogaol [1]: abrogated
effect on reductive metabolism of [6]-shogaol [1]: did not inhibit reductive metabolism

SMILES: CCCCCC(CC(O)CCc1ccc(O)c(OC)c1)SCC(N)C(=O)O (centres unmarked) [M1, 5-cysteinyl-M6]
activity against cancer cells (MTT) [2]: little to no activity
activity against cancer cells (MTT) [3]: little to no activity

SMILES: CCCCCCCC(CC(=O)CCc1ccc(O)c(OC)c1)SC[C@H](N)C(=O)O (some centres unmarked) [M2′, 5-cysteinyl-[8]-shogaol]
IC50 [4]: 15.2 µM
IC50 [5]: 31.2 µM
p53 expression (Western blot) [6]: increase in p53 accumulation
p53 expression (Western blot) [7]: increase in p53 accumulation

SMILES: CCCCCCCCCC(CC(=O)CCc1ccc(O)c(OC)c1)SC[C@H](N)C(=O)O (some centres unmarked) [M2″, 5-cysteinyl-[10]-shogaol]
IC50 [4]: 13.3 µM
IC50 [5]: 28.8 µM
p53 expression (Western blot) [6]: increase in p53 accumulation
p53 expression (Western blot) [7]: increase in p53 accumulation

SMILES: CCCCCC(CC(O)CCc1ccc(O)c(OC)c1)SCC(NC(C)=O)C(=O)O (centres unmarked) [M4, 5-N-acetylcysteinyl-M6]
activity against cancer cells (MTT) [2]: little to no activity
activity against cancer cells (MTT) [3]: little to no activity

IC50 [8]: > 100 µM
IC50 [9]: > 100 µM
SMILES: CCCCCC(CC(=O)CCc1ccc(O)c(OC)c1)SC[C@H](NC(C)=O)C(=O)O (some centres unmarked) [M5, 5-N-acetylcysteinyl-[6]-shogaol]
IC50 [2]: 54.3 µM
IC50 [3]: 72.6 µM

SMILES: CCCCCCCC(=O)CCc1ccc(O)c(O)c1 [M8, 1-(3′,4′-dihydroxyphenyl)-decan-3-one]
IC50 ([2]; Homo sapiens): 58.8 µM
IC50 at 48 h [10]: > 100 µM
IC50 at 48 h [11]: > 100 µM

IC50 [12]: 77.7 µM
IC50 [13]: 82.2 µM
SMILES: CCCCCCCC(O)CCc1ccc(O)c(OC)c1 (centres unmarked) [M9, 1-(4′-hydroxy-3′-methoxyphenyl)-decan-3-ol]
apoptotic cells (TUNEL) ([14]; H-1299, 40 μM): 7.4%
apoptotic cells (TUNEL) ([14]; H-1299, 80 μM): 15.4%
apoptotic cells (TUNEL) ([15]; HCT-116, 40 μM): 9.6%
apoptotic cells (TUNEL) ([15]; HCT-116, 80 μM): 16.9%
IC50 ([2]; Homo sapiens): 82.2 µM
IC50 ([3]; Homo sapiens, NCI-H1299): 82.5 µM
IC50 at 48 h [10]: > 100 µM
IC50 at 48 h [11]: > 100 µM

SMILES: CCCCCC(CC(=O)CCc1ccc(O)c(OC)c1)SC (centres unmarked) [M10, 5-methylthio-1-(4′-hydroxy-3′-methoxyphenyl)-decan-3-one]
IC50 ([2]; Homo sapiens): 78.2 µM
IC50 ([3]; Homo sapiens, NCI-H1299): 60.6 µM
IC50 at 48 h [10]: > 100 µM
IC50 at 48 h [11]: > 100 µM

IC50 [12]: 66.5 µM
IC50 [13]: 84 µM
SMILES: CCCCCCCC(=O)CCc1ccc(O)c(OC)c1 [M11, 1-(4′-hydroxy-3′-methoxyphenyl)-decan-3-one]
apoptotic cells (TUNEL) ([14]; H-1299, 40 μM): 8.3%
apoptotic cells (TUNEL) ([14]; H-1299, 80 μM): 19.4%
apoptotic cells (TUNEL) ([15]; HCT-116, 40 μM): 12.9%
apoptotic cells (TUNEL) ([15]; HCT-116, 80 μM): 21.1%
IC50 ([2]; Homo sapiens): 84 µM
IC50 ([3]; Homo sapiens, NCI-H1299): 66.5 µM
IC50 at 48 h [10]: > 100 µM
IC50 at 48 h [11]: > 100 µM

SMILES: CCCCCC(CC(O)CCc1ccc(O)c(OC)c1)SC (centres unmarked) [M12, 5-methylthio-1-(4′-Hydroxy-3′-methoxyphenyl)-decan-3-ol]
IC50 ([3]; Homo sapiens, NCI-H1299): 69.9 µM
IC50 at 48 h [10]: > 100 µM
IC50 at 48 h [11]: > 100 µM

IC50 [8]: 75.5 µM
IC50 [9]: 57.5 µM
SMILES: CCCCCC(CC(=O)CCc1ccc(O)c(OC)c1)SC[C@H](NC(=O)CC[C@H](N)C(=O)O)C(=O)NCC(=O)O (some centres unmarked) [M13, 5-glutathiol-[6]-shogaol]
IC50 [2]: 45.5 µM
IC50 [3]: 47.8 µM
induction of apoptosis (TUNEL) versus DMSO [16]: Apoptosis was observed
induction of apoptosis (TUNEL) versus DMSO ([17]; 6 hours): higher levels of apoptosis
induction of apoptosis (TUNEL) versus DMSO ([17]; 24 hours): Apoptosis was observed
